Source: patent US20190300927A1, “METABOLIC ASSAY FOR BACTERIAL GROWTH AND GRAM TYPING” (SELUX DIAGNOSTICS, INC., priority 2018, published 2019)

Assays:
gram-positive organisms = settings: Fung and Miller 1973; cited from earlier work
gram-negative organisms = settings: Fung and Miller 1973; cited from earlier work
[1] = system: clinical isolates of Pseudomonas aeruginosa; test: Resorufin fluorescence after 4 hour incubation with P. aeruginosa clinical isolates (FIG. 3); assay type: cell-based; settings: resorufin alone 100 μM, no methylene blue, Mueller-Hinton broth, Ex560/Em590
Method: FIG. 3 Experiment: Four clinical isolates of P aeruginosa were inoculated into MHB at a 1:200 dilution from a 0.5 McFarland standard. Resorufin was added to each well at a 100 μM final concentration. Plates were incubated shaking for 4 hours at 37° C. Fluorescence was read at Ex560/Em590. Uninoculated MIHB with resorufin was included as a negative control.

Structure (SMILES)	effect of high concentrations on gram-positive organisms (gram-positive organisms)	effect of high concentrations on gram-negative organisms (gram-negative organisms)	remaining resorufin fluorescence after P. aeruginosa growth [1]
CN(C)c1ccc2nc3ccc(=[N+](C)C)cc-3sc2c1 [methylene blue, Methylene blue]	inhibitory	tolerated	–
O=c1ccc2nc3ccc(O)cc3oc-2c1 [resorufin]	–	–	does not eliminate the resorufin fluorescence
